For assay [1], the target named is T1, Calpain-1 catalytic subunit (Homo sapiens) (UniProt P07384).
T1 sequence (whole entry): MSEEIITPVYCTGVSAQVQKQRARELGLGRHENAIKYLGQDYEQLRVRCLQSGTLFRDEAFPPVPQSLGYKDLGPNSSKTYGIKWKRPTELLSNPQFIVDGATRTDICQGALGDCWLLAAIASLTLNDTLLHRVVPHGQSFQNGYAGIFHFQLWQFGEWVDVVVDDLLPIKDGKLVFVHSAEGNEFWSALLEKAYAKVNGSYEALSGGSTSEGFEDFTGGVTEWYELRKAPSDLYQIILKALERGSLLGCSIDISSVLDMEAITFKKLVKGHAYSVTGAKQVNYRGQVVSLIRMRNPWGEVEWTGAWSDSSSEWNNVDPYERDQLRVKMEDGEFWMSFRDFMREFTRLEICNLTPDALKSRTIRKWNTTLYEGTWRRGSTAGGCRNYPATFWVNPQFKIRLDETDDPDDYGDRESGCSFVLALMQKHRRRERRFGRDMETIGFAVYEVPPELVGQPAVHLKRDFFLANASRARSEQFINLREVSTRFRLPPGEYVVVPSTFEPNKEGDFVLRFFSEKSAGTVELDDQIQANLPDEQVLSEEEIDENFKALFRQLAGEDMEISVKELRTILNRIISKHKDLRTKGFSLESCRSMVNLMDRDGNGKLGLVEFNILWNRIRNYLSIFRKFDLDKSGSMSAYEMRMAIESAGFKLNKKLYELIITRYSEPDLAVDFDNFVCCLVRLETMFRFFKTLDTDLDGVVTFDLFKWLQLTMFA
Description: In vitro inhibitory activity against human erythrocyte Calpain 1 at a concentration of 50 uM.

Assay [2] concerns the target T2, Calpain-1 catalytic subunit (Homo sapiens, UniProt P07384).
T2 sequence (P07384 whole entry): T1 sequence (whole entry)
Description: In vitro inhibitory activity against human erythrocyte Calpain 1.

Another assay concerns the target Cathepsin B (Homo sapiens, UniProt P07858). As to the kind of experiment: In vitro inhibitory activity against Cathepsin B.
The target of a further assay is Procathepsin L (Homo sapiens, UniProt P07711). As to the kind of experiment: In vitro inhibitory activity against cathepsin L.
Procathepsin L, sequence (P07711 whole entry): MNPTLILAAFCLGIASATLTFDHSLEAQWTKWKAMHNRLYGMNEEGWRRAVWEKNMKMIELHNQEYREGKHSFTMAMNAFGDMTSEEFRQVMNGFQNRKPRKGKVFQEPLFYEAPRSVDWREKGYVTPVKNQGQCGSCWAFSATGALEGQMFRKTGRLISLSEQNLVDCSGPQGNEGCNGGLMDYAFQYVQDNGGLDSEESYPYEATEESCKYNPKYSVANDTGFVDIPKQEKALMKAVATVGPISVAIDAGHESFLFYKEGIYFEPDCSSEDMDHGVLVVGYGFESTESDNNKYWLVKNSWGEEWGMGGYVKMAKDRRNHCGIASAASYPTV

A word on the inhibition: it is the drop in the measured response relative to a control, in per cent. Regarding `Cc1cc(-n2cc(C(N)=O)c(=O)c3ccc(-c4ccncc4)cc32)cc(C)c1O`, in assay [1], the inhibition was < 10%.
What is called IC50 is the point on the concentration scale where inhibition reaches its midpoint. In the case of `NC(=O)c1cn(-c2ccc(O)cc2Cl)c2cc(-c3cccnc3)ccc2c1=O`, it took 10 µM to reach half-maximal inhibition in assay [2] (IC50).
As for `NC(=O)c1cn(-c2ccc(O)cc2)c2ccccc2c1=O`, the inhibition in assay [1] is < 10%.
Regarding `Cc1cncc(C)c1-c1ccc2c(=O)c(C(N)=O)cn(-c3ccc(O)cc3Cl)c2c1`, the inhibition in assay [1] was < 10%.
`Cc1cc(O)ccc1-n1cc(C(N)=O)c(=O)c2ccc(-c3ccncc3)cc21` came in with an IC50 in assay [2] of 0.5 µM.
In assay [2], `NC(=O)c1cn(-c2ccc(O)cc2Cl)c2cc(-c3ccccn3)ccc2c1=O` yielded a 50% inhibitory concentration (IC50) of 30 µM. This IC50 is about 60-fold higher than that of the compound before.
For `O=C(NCCO)c1cn(-c2ccc(O)cc2)c2cc(-c3ccncc3)ccc2c1=O`, the inhibition in assay [1] is < 10%.
In assay [2], `NC(=O)c1cn(-c2ccc(O)cc2Cl)c2cc(-c3cccnn3)ccc2c1=O` registered an IC50 of 2 µM.
The same measure, in the same setting: in the case of `NC(=O)c1cn(-c2ccc(O)cc2Cl)c2cc(-c3ccnc(F)c3)ccc2c1=O` it was 30 µM; in that of `NC(=O)c1cn(-c2ccc(O)cc2C(F)(F)F)c2cc(-c3ccncc3)ccc2c1=O`, 20 µM; in that of `NC(=O)c1cn(-c2ccc(O)cc2Cl)c2cc(-c3ccoc3)ccc2c1=O`, 2 µM.
Turning to `NC(=O)c1cn(-c2ccc(O)cc2Cl)c2cc(-c3ccncc3)ccc2c1=O`, the IC50 in assay [2] came out at 0.5 µM; against Cathepsin B it was 25 µM; on Procathepsin L it was 22 µM.
The compound `NC(=O)c1cn(-c2ccc(O)cc2F)c2cc(-c3ccncc3)ccc2c1=O` yielded an IC50 in assay [2] of 7 µM.
With `O=C(NO)c1cn(-c2ccc(O)cc2)c2cc(-c3ccncc3)ccc2c1=O`, the inhibition in assay [1] is < 10%.
For the compound `CN(C)C(=O)c1cn(-c2ccc(O)cc2)c2cc(-c3ccncc3)ccc2c1=O`, in assay [1], the inhibition was < 10%.
Same read-out and setting: in the case of `NC(=O)c1cn(-c2ccc(O)cc2)c2cc(-c3ccccc3)ccc2c1=O` it was < 10%.
On to `NC(=O)c1cn(-c2ccc(O)cc2)c2cc(-c3ccncc3)ccc2c1=O`, for which the IC50 came to 32 µM against Cathepsin B and 37 µM at Procathepsin L.
In assay [2], `O=C(O)c1cn(-c2ccc(O)cc2)c2cc(-c3ccncc3)ccc2c1=O` gave an IC50 of 20 µM.
The same measure, in the same setting: then `NC(=O)c1cn(-c2ccc(O)cc2Cl)c2cc(-n3cccn3)ccc2c1=O`, with 0.6 µM; and `NC(=O)c1cn(-c2ccc(O)cc2Cl)c2cc(-c3ccncc3Cl)ccc2c1=O`, with 2 µM.
Turning to `CNC(=O)c1cn(-c2ccc(O)cc2)c2cc(-c3ccncc3)ccc2c1=O`, the inhibition in assay [1] was < 10%.
For `CC(=O)N[C@@H](CC(C)C)C(=O)N[C@@H](CC(C)C)C(=O)N[C@H](C=O)CCCNC(=N)N` [LEUPEPTIN], the IC50 in assay [2] was found to be 0.3 µM.

These data come from ChEMBL document CHEMBL1153663, “Inhibition of human erythrocyte calpain I by novel quinolinecarboxamides” (Bioorg Med Chem Lett, 1995).
